From ChEMBL document CHEMBL1158149, “(+)-Nortrachelogenin, a new pharmacologically active lignan from Wikstroemia indica” (1979)
Activity calls are given as the source filed them. The calls are words filed in the database; no cut-off is given here.

What was measured:
Mus musculus [1] = species on record: Mus musculus; assay: Effect on central nervous system in mouse assessed as tranquilizing activity; format: functional, organism-based
Mus musculus [2] = species on record: Mus musculus; assay: Effect on central nervous system in mouse assessed as muscle relaxant activity; format: functional, organism-based
Mus musculus [3] = species on record: Mus musculus; assay: Effect on central nervous system in mouse assessed as prolongation of anesthesia; format: functional
Oryctolagus cuniculus = species on record: Oryctolagus cuniculus; assay: Effect on central nervous system in rabbit assessed as depression; format: functional, organism-based

With `COc1cc(C[C@@H]2COC(=O)[C@@]2(O)Cc2ccc(O)c(OC)c2)ccc1O` [WIKSTROMOL] the Activity (Mus musculus [1]) was “inactive”, the Activity (Mus musculus [2]) was “inactive” and the LD50 (Mus musculus [3]) was 65 mg/kg. For the same molecule, the Activity (Oryctolagus cuniculus) was “Active”.
